Reference: patent US9732075B2, “Benzimidazole-proline derivatives” (IDORSIA PHARMACEUTICALS LTD, priority 2012, dated 2017)

Experiments:
human orexin-1 receptor = human orexin-1 receptor (Homo sapiens (Human), UniProt O43613); assay: In vitro assay: intracellular calcium measurements (FLIPR), antagonistic activity; format: cell-based; conditions: CHO cells expressing human orexin-1 receptor, orexin-A agonist, geometric mean, read-out: IC50 Ox1
Procedure, shortened: (§1)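 Read-out: FLIPR fluo-4 calcium peak height in CHO cells bearing human orexin-1 or orexin-2 receptor, relative to orexin-A (approx. EC70) with vehicle. Antagonist preincubation 120 min; agonist orexin-A at 3 nM final. IC50 possibly normalized to an on-plate reference compound.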

human orexin-2 receptor = human orexin-2 receptor (Homo sapiens (Human), UniProt O43614); assay: as above; format: cell-based; conditions: CHO cells expressing human orexin-2 receptor, orexin-A agonist, geometric mean, read-out: IC50 Ox2
Procedure, shortened: as §1

Sequence of human orexin-1 receptor (O43613 whole entry): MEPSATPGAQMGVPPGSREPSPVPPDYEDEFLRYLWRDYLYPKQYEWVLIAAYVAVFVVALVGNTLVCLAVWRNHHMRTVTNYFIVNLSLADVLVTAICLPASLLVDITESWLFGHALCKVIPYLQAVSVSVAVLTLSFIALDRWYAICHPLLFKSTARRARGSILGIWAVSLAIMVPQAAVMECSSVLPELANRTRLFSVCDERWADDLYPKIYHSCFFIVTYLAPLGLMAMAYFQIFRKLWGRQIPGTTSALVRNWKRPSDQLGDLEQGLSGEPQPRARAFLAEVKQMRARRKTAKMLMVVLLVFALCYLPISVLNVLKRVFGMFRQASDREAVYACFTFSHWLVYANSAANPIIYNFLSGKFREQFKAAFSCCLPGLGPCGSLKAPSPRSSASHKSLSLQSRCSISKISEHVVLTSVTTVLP
Sequence of human orexin-2 receptor (O43614 whole entry): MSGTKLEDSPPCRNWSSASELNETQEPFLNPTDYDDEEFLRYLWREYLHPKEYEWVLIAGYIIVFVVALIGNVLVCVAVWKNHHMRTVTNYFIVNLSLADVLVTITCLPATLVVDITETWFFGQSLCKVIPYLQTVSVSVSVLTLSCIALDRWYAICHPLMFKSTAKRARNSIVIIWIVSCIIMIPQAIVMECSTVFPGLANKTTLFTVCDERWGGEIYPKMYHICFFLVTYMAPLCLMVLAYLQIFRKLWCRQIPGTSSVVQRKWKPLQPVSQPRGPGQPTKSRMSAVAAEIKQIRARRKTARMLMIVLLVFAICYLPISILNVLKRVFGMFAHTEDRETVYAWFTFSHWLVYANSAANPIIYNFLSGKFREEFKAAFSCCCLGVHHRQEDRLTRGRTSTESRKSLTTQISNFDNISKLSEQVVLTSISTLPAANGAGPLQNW

Row | SMILES | IC50 (human orexin-1 receptor) | IC50 (human orexin-2 receptor)
1 | Cc1ccc(-n2nccn2)c(C(=O)N2CC(F)(F)C[C@H]2c2nc3c(C)c(Cl)ccc3[nH]2)c1 [Ex. 2.6] | 52 nM | 59 nM
2 | C[C@@]1(c2nc3cc(C(F)(F)F)c(Cl)cc3[nH]2)CCCN1C(=O)c1ccccc1-n1cccn1 [Ex. 5.141] | 27 nM | 244 nM
3 | COc1ccc(-c2nc(C(=O)N3CCC[C@@]3(C)c3nc4cc(Cl)c(C(F)(F)F)cc4[nH]3)c(-c3ccc(F)cc3)s2)cc1 [Ex. 5.293] | 77 nM | 4040 nM
4 | COc1cc2nc([C@]3(C)CCCN3C(=O)c3cc(C)ccc3-n3nccn3)n(C)c2cc1OC [Ex. 7.9] | 28 nM | 28 nM
5 | COc1ccc(-c2ccc(C#N)cc2)c(C(=O)N2CCC[C@@]2(C)c2nc3c(C)c(Cl)ccc3[nH]2)c1F [Ex. 5.308] | 21 nM | 122 nM
6 | Cc1c(Cl)ccc2[nH]c([C@@H]3[C@@H](C)CCN3C(=O)c3c(F)cccc3-c3ccccc3)nc12 [Ex. 4.169] | 4 nM | 892 nM
7 | COc1cc2nc([C@]3(C)CCCN3C(=O)c3nc(C)sc3-c3cc(F)cc(F)c3)[nH]c2cc1OC [Ex. 5.76] | 33 nM | 47 nM
8 | COc1cc2nc([C@]3(C)CCCN3C(=O)c3cc(C)c(C)cc3-n3nccn3)n(C)c2cc1OC [Ex. 7.13] | 21 nM | 49 nM
9 | Cc1ccc(-c2ccccc2C(=O)N2CC[C@H](C)[C@H]2c2nc3cc(C)c(C)cc3[nH]2)cc1 [Ex. 4.86] | 7 nM | 352 nM
10 | C=C1CC(c2nc3c(C)c(C)ccc3[nH]2)N(C(=O)c2cc(C)sc2-c2ccc(C)c(C)c2)C1 (stereo not shown) [Ex. 6.77] | 3 nM | 9 nM
11 | COc1ccc(-c2ccc(C)cc2C(=O)N2CCC[C@@]2(C)c2nc3cc(C(F)(F)F)ccc3[nH]2)cc1 [Ex. 5.191] | 18 nM | 69 nM
12 | C=C1CN(C(=O)c2nc(N(C)C)sc2-c2ccc(C)c(C)c2)C(C)(c2nc3cc(OC)ccc3[nH]2)C1 (stereo not shown) [Ex. 6.144] | 15 nM | 56 nM
13 | C=C1C[C@@H](c2nc3c(Br)cccc3[nH]2)N(C(=O)c2cc(C)ccc2-n2nccn2)C1 [Ex. 6.64] | 142 nM | 33 nM
14 | COc1ccc(-n2nccn2)c(C(=O)N2C[C@H](OC)C[C@H]2c2nc3ccc(Cl)c(C)c3[nH]2)c1 [Ex. 3.12] | 13 nM | 1 nM
15 | Cc1ccc(C(=O)N2CC[C@H](C)[C@H]2c2nc3cc(Cl)c(C)cc3[nH]2)c(-n2nccn2)c1 [Ex. 4.72] | 4 nM | 51 nM
16 | Cc1ccc(-c2ccccc2C(=O)N2CC[C@H](C)[C@H]2c2nc3c(C)c(Cl)ccc3[nH]2)cc1 [Ex. 4.61] | 0.9 nM | 72 nM
17 | C=C1C[C@@H](c2nc3cccc(Cl)c3[nH]2)N(C(=O)c2cc(C)ccc2-n2nccn2)C1 [Ex. 6.69] | 389 nM | 51 nM
18 | C=C1C[C@@H](c2nc3c(C)c(C)ccc3[nH]2)N(C(=O)c2nc(C)sc2-c2ccc(C)c(C)c2)C1 [Ex. 6.47] | 6 nM | 1 nM
19 | Cc1ccc(-n2nccn2)c(C(=O)N2CCC[C@@]2(C)c2nc3c(C)c(Cl)ccc3[nH]2)c1 [Ex. 5.2] | 2 nM | 5 nM
20 | Cc1ccc(-c2ccccc2C(=O)N2CC[C@H](C)[C@H]2c2nc3c(C)cc(Cl)cc3[nH]2)cc1 [Ex. 4.92] | 5 nM | 212 nM
21 | Cc1ccc(-c2ccc(OC(F)(F)F)cc2)c(C(=O)N2CCC[C@@]2(C)c2nc3cc(C(F)(F)F)ccc3[nH]2)c1 [Ex. 5.187] | 310 nM | > 2590 nM
22 | Cc1cc(C)c2nc(C3CCCN3C(=O)c3nc(C)sc3-c3ccccc3)[nH]c2c1 (stereo not shown) [Ex. 1.127] | 33 nM | 22 nM
23 | Cc1ccc(-c2ncccn2)c(C(=O)N2CC[C@H](C)[C@H]2c2nc3cc(C)c(C)cc3[nH]2)c1 [Ex. 4.183] | 93 nM | 2260 nM
24 | Cc1ccc(C(=O)N2CC[C@H](C)[C@H]2c2nc3c(C)c(Cl)ccc3[nH]2)c(-c2ccccc2)c1 [Ex. 4.168] | 10 nM | 486 nM
25 | Cc1cc2nc([C@]3(C)CCCN3C(=O)c3ccccc3-c3ccccc3F)[nH]c2cc1C [Ex. 5.103] | 46 nM | 70 nM
26 | C=C1C[C@@H](c2nc3cc(OC)ccc3[nH]2)N(C(=O)c2nc(C)sc2-c2ccc(C)c(C)c2)C1 [Ex. 6.9] | 7 nM | 4 nM
27 | Cc1cc2[nH]c([C@@H]3[C@@H](C)CCN3C(=O)c3c(-c4cccnc4)ccc(C)c3F)nc2cc1Cl [Ex. 4.117] | 16 nM | 2570 nM
28 | CSc1ccc2nc([C@@H]3CCCN3C(=O)c3nc(C)sc3-c3cccc(F)c3)[nH]c2c1 [Ex. 1.39] | 157 nM | 73 nM
29 | Cc1ccc(-c2cccc(F)c2)c(C(=O)N2CCC[C@@]2(C)c2nc3cc(C(F)(F)F)ccc3[nH]2)c1 [Ex. 5.182] | 10 nM | 55 nM
